The results in this text go back to paper PMC10600239, “Selective MCL-1 inhibitor ABBV-467 is efficacious in tumor models but is associated with cardiac troponin increases in patients” (Communications Medicine, 2023).

Several values for one entry are separate records, joined by “and”; a condition that tells them apart may be missing. Equal values may be shown once. Read-outs that look alike come from different tables or passages of the source. Some results are limits rather than exact numbers.

In test [1] the target is human MCL-1 (Homo sapiens, UniProt Q07820). As to the kind of experiment: Time-resolved FRET binding assay. As for the experimental part:
Test compounds were serially diluted in DMSO starting at […] (20× starting concentration; 100% DMSO followed by a 1:10 dilution of the compound DMSO plate into assay buffer); 10 µL of the compound in 10% DMSO was then transferred into a 384-well plate (low-volume Corning #3673 assay plate). Glutathione S-transferase (GST)-tagged recombinant BCL-2, BCL-XL, MCL-1, BCL-W, or BCL2-A1 protein (1 nM each) were mixed with 100 nM Oregon Green™-labeled f-BAK peptide probe and 1 nM Tb-labeled anti-GST antibody were mixed. Then 10 µL of a 2× protein/probe/antibody mix was added to each well of increasing concentrations of test compound in assay buffer (20 mM potassium phosphate, pH 7.6, 50 mM NaCl, 1 mM ethylenediaminetetraacetic acid disodium salt dihydrate, 0.05% pluronic acid F-68, 1 mM DL-dithiothreitol) at room temperature (final concentrations listed in Supplementary Table S2). The samples were then mixed on a shaker for 1 min and incubated for an additional 1 h at room temperature. For each assay plate, a probe/antibody and protein/antibody/probe mixture were included as a negative and a positive control, respectively. Fluorescence was measured on the EnVision™ (Perkin Elmer) using a 340/35-nm excitation filter and 520/525- (F-Bak) and 495/510-nm (Tb-labeled anti-glutathione S-transferase [GST] antibody) emission filters. Dissociation constants were determined using Wang’s equation[35]. The time-resolved FRET assay can be performed in the presence of varying concentrations of human serum to determine apparent half-maximal inhibitory concentration after serum protein binding.

The target of test [2] is off-target receptors, ion channels, and transporters (Homo sapiens, UniProt P00533). In words: Off-target profiling (Supplementary Data 1). As to conditions: TR-FRET Kinome; Invitrogen A-1224127.6 .1(Subs Conc). In general terms: Time-resolved FRET reads energy transfer from a long-lived donor to a nearby acceptor.
Chain of off-target receptors, ion channels, and transporters (Homo sapiens, UniProt P00533) (P00533 25-1210): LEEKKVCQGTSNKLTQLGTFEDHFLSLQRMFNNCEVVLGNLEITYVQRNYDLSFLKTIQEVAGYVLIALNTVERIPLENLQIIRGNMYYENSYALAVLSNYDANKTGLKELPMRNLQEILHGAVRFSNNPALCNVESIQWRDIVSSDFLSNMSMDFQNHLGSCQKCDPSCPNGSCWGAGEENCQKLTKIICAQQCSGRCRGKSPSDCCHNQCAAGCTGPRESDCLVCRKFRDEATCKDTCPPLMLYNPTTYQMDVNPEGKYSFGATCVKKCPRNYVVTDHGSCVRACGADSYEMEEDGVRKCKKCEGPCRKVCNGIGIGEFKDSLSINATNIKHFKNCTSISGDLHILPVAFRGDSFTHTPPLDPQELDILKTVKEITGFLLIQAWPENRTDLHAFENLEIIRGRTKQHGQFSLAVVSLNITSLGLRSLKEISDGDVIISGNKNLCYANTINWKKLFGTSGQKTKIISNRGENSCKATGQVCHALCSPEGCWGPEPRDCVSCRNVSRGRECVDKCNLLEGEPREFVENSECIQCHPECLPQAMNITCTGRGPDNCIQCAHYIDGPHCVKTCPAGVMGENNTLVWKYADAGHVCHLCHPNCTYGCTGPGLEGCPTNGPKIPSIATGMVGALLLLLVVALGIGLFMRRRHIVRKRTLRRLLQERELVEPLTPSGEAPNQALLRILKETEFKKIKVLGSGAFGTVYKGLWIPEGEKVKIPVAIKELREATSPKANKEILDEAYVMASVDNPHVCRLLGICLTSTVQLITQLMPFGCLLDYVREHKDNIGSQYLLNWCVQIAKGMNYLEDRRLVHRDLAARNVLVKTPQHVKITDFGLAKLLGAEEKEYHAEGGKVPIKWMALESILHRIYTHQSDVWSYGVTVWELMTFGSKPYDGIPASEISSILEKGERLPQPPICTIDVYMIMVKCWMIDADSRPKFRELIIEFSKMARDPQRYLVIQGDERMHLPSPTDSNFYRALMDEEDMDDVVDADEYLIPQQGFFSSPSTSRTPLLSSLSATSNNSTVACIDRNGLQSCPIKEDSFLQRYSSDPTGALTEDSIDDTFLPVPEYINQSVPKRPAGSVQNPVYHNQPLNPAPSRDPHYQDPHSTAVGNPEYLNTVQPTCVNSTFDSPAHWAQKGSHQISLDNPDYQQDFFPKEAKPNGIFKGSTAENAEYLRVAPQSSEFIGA
Test [3] has as its target off-target receptors, ion channels, and transporters (Homo sapiens, UniProt O15530). In words: Off-target profiling (Supplementary Data 1). Conditions: TR-FRET Kinome; Invitrogen A-1167389.7 .015(Subs Conc).
The target in test [4] is off-target receptors, ion channels, and transporters (Homo sapiens, UniProt P41240). As to the kind of experiment: Off-target profiling (Supplementary Data 1). As to conditions: TR-FRET Kinome; SignalChem A-1196581.2 .002(Subs Conc).
Chain of off-target receptors, ion channels, and transporters (Homo sapiens, UniProt P41240) (P41240 whole entry): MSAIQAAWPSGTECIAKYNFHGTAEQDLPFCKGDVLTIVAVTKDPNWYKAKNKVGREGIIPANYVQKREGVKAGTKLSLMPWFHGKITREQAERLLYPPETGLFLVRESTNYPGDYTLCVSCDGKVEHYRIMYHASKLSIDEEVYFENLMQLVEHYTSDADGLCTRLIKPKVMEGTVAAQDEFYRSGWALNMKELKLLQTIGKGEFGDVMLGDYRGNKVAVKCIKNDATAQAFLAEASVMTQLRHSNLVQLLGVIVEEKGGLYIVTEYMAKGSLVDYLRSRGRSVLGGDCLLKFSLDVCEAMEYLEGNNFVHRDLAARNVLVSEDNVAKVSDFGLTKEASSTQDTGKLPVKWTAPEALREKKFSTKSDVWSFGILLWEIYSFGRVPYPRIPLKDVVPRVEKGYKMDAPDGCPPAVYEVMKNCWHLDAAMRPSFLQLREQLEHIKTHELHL
Test [5] deals with off-target receptors, ion channels, and transporters (Homo sapiens, UniProt P43405). As to the kind of experiment: Off-target profiling (Supplementary Data 1). As to conditions: TR-FRET Kinome; Invitrogen A-1167389.7 .001(Subs Conc).
Test [6] has as its target off-target receptors, ion channels, and transporters (Homo sapiens, UniProt P49760). As to the kind of experiment: Off-target profiling (Supplementary Data 1). Conditions: TR-FRET Kinome; Invitrogen A-1180691.2 .05(Subs Conc).
For test [7], the system named is DLD-1 cells. As to the kind of experiment: In vitro cell viability assay (CellTiter-Glo). The test is classed as cell-based, human. Conditions: for EC50: Homo sapiens. As for the experimental part:
(§1) All cell lines were grown and treated in RPMI 1640 or Dulbecco’s modified Eagle medium (Sigma, St. Louis, MO) supplemented with 10% fetal bovine serum (Gibco) or 10% human serum (Sigma) and maintained in a humidified incubator at 5% CO2 and 37 °C. DLD-1, MV4-11, NCI-H929 (all ATCC, Manassas, VA, USA) and AMO-1 (DSMZ, Braunschweig, Germany) cells were plated 4000 cells per well in 384-well tissue culture plates and treated with compounds of interest for 24 h at 37 °C, 5% CO2 humidified incubator. Each concentration was tested in duplicate at least 3 separate times. Adherent cells were allowed to adhere overnight prior to treatment. Alternatively, AMO-1 or NCI-H929 cells were treated with ABBV-467 for the indicated contact times (1–24 h) at 37 °C in a 5% CO2 humidified incubator and washed 3 times with compound-free media prior to incubation for the remainder of a 24-h treatment period. Cell viability was subsequently determined using CellTiter-Glo (Promega, Madison, WI, USA) according to the manufacturer’s instructions.
(§2) For in vitro viability assays, mean EC50 and EC90 values were determined from the resulting dose-response curves from at least 3 independent experiments, and depict the mean ± standard error of the mean.

The test system of test [8] is MV4-11 cells. In words: In vitro cell viability assay (CellTiter-Glo). The test is classed as cell-based, human. As for the experimental part: as §1, §2
For orientation: In ATP-based viability assays light output follows the ATP content of the culture.

Chain of human MCL-1 (Q07820 whole entry): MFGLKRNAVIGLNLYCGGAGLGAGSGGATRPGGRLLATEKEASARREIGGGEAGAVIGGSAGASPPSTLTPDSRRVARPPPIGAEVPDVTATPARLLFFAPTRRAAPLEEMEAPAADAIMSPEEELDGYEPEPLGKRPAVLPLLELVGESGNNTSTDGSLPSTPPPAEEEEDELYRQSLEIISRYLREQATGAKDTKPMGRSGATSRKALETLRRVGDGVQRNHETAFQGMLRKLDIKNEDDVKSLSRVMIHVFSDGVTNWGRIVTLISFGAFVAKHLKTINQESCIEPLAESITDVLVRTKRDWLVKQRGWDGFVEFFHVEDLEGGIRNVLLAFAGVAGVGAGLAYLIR
Chain of off-target receptors, ion channels, and transporters (Homo sapiens, UniProt O15530) (O15530 whole entry): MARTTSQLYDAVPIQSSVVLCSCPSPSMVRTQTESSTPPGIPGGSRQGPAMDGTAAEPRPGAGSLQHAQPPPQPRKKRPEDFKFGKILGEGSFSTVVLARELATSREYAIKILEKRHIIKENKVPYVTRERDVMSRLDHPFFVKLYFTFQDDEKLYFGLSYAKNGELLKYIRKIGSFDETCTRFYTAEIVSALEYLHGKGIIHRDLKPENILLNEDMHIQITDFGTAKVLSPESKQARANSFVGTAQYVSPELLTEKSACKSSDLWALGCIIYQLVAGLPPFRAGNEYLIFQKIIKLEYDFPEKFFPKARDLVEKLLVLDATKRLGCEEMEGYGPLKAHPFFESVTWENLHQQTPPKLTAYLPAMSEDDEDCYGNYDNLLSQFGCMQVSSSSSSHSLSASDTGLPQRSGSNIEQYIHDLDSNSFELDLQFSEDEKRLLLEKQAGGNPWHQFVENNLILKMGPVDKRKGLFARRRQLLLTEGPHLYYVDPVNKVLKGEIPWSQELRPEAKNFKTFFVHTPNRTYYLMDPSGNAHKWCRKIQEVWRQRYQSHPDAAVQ
Chain of off-target receptors, ion channels, and transporters (Homo sapiens, UniProt P49760) (P49760 whole entry): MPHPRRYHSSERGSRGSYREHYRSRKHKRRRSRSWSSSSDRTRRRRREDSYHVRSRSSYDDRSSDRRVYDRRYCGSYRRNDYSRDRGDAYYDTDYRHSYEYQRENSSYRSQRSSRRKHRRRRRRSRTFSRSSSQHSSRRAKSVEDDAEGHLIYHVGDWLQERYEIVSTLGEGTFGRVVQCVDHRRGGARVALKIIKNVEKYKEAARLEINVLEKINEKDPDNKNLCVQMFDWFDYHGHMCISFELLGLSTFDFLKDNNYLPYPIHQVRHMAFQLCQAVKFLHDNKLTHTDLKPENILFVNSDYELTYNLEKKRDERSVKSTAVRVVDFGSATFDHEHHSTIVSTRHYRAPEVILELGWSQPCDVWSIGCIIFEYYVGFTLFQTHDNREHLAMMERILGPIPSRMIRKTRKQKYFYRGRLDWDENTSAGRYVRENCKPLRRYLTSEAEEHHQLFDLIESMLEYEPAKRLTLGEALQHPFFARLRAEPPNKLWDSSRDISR

In general, Ki refers to the dissociation constant of the complex between target and ligand, obtained from inhibition or displacement. By EC50 is commonly meant the concentration at which the effect is half-maximal. As to `Cc1c(Cl)c2c(Cl)c(C)c1-c1c(-c3ccc(F)cc3)sc3ncnc(c13)O[C@@H](C(=O)O)Cc1cc(ccc1OCc1ccnc(-c3ccc(OC[C@H]4COCCO4)cc3)n1)OC[C@@H](CN1CCN(C)CC1)O2` [ABBV-467], the Ki in test [1] (TR-FRET, arithmetic mean, read-out: Arithmetic Mean Ki, MCL1) was below 0.01 nM; in test [1] (TR-FRET, individual determinations, read-out: Individual Ki, MCL1), below 0.01 nM; in test [1] (read-out: TR-FRET, Ki, nM MCL-1) it was below 0.01 nM. In test [2], this molecule came in with an EGFR - IC50 above 10000 nM. The molecule also came in with a PDK1 - IC50 in test [3] above 10000 nM. In addition, the CSK - IC50 in test [4] is above 10000 nM. The molecule further yielded a Syk - IC50 in test [5] above 10000 nM. For the same molecule, the CLK2 - IC50 in test [6] is above 10000 nM. In addition, the “activity in DLD-1” value in test [7] was “inactive”. Also, the EC50 was above 10000 nM in test [7] (DLD-1, read-out: DLD-1 EC50 (nM), 10% FBS, 24 h continuous treatment); above 10000 nM in test [7] (DLD-1, arithmetic mean, read-out: Arithmetic Mean EC50); above 10000 nM in test [7] (DLD-1, individual determinations, read-out: Individual EC50); 0.00391 µM in test [8] (Homo sapiens, MV4-11, MV4-11, arithmetic mean, read-out: Arithmetic Mean EC50 µM); 0.00403 µM in test [8] (Homo sapiens, MV4-11, MV4-11, individual determinations, read-out: Individual EC50); 0.00422 µM and 0.00347 µM in test [8] (MV4-11, individual determinations, read-out: Individual EC50).
